Source: PMC11370232, “Repurposing of a library for high-content screening of inhibitors against Echinococcus granulosus” (Parasites & Vectors, 2024)
Converted amounts (≈) assume the structure as drawn. Where a name gives a salt, the structure may show the parent alone. Read-outs that look alike come from different tables or passages of the source.

What was measured:
[1] = system: lab-cultured E. granulosus cysts (> 1 mm); assay: In vitro cyst viability assay; format: cell-based, Echinococcus granulosus; conditions: for inhibition at 10 µM: Echinococcus granulosus, 72 h, read-out: inhibitory rate against the cysts
[2] = system: N. fowleri; parameters: method as in earlier work; conditions: cited from earlier work
[3] = system: alpha- and beta-coronaviruses; conditions: cited from earlier work
[4] = in vitro; conditions: human
[5] = system: lab-cultured E. granulosus microcysts (< 1 mm); assay: In vitro microcyst viability assay; format: cell-based, Echinococcus granulosus; conditions: 10 μM, 4 days
Method: The in vitro E. granulosus culture progression was divided into two stages: an early stage in which the PSC culture was established by digesting echinococcal cysts isolated from naturally infected sheep livers, followed by a late stage with differentiation into cysts. CSCs were cultured from PSCs according to our previously described method. Briefly, the PSCs were incubated at 37 °C in glass culture vessels in RPMI 1640 medium (Invitrogen, San Diego, CA) containing 20% (v/v) FCS (Invitrogen), 0.45% (w/v) yeast extract, 0.4% (w/v) glucose, 100 IU/mL penicillin, and 100 μg/mL streptomycin placed on a solid-phase base prepared by heating newborn calf serum at 75 °C for 45 min (Smyth, 1990). Approximately 100 PSCs/mL were cultured, and the liquid medium was replaced every 3 days. After 56 days of cultivation, about 10% of the PSCs had developed into cysts with a thin laminated layer. The external diameter of the cysts was 328.6 ± 48 μm, and they appeared to the naked eye as clear capsular cysts. The cysts were carefully aspirated from the culture flasks and separated from dead or undeveloped PSCs by Pasteur pipetting. CSCs included microcysts and cysts: the diameter of the microcysts ranged from 300 μm to 1 mm, and the diameters of the cysts were greater than 1 mm.
CSCs were cultured from PSCs utilizing the method described in a previous section. The in vitro cultured cysts (10 ± 5/well) or microcysts (10 ± 5/well) were seeded in 96-well plates before adding drugs. For the cyst/microcyst viability assay, cysts or microcysts were cultured in one well of a 96-well plate. After 1 day of culture, drugs were added to each well at a final concentration of 10 μM. For the cyst viability assay, the cyst survival rate was determined every 24 h after incubation with drugs, while for the microcyst viability assay, the survival rate of microcysts was determined at 4 days after drug incubation. The following equation was used for the death rate: death rate of CSCs (%) = 100 × (number of dead CSCs/number of total CSCs).

[6] = molecular target: opioid receptor-like1 (ORL1) receptor; parameters: method as in SelleckChem library description; conditions: ref SelleckChem library description; cited from earlier work
[7] = Cytotoxicity in HepG2; conditions: human
[8] = system: PI3Kα; parameters: method as in SelleckChem library description; conditions: ref SelleckChem library description; cited from earlier work
[9] = system: PI3Kβ; parameters: method as in SelleckChem library description; conditions: ref SelleckChem library description; cited from earlier work
[10] = system: PI3Kγ; parameters: method as in SelleckChem library description; conditions: ref SelleckChem library description; cited from earlier work
[11] = system: ALK; parameters: method as in SelleckChem library description; conditions: ref SelleckChem library description, cited from earlier work
[12] = system: CE; parameters: method as in PMID 15708321, PMID 11776080; conditions: retrospective study; cited from earlier work
[13] = system: E. granulosus cysts collected from mice infected with microcysts; assay: Ex vivo cyst viability assay; format: cell-based, Echinococcus granulosus; conditions: for metacestodicidal effect on cysts ex vivo: 1 to 20 μM, 7 days
Method: BALB/c mice were inoculated with cultured microcysts following the methodology outlined in a previous study; 10 weeks post-infection, the mice were euthanized, and cysts were harvested from the peritoneal cavity. The cysts were categorized as size-small cysts, with a diameter less than 5 mm and without PSCs, or large cysts, with a diameter greater than 5 mm and with PSCs. Subsequently, the cysts were incubated in bottles with RPMI 1640 culture medium enriched with 10% FCS and antibiotics.
To determine the effect of omaveloxolone (HY-12212, MCE) and niclosamide (HY-B0497, MCE) on isolated cyst viability ex vivo, cysts collected from the peritoneal cavity of infected mice were incubated with different concentrations of drugs (1, 5, and 20 μM) for 7 days. The mortality rate of the cysts was recorded each day according to the following equation: death rate of cyst/microcyst (%) = [number of dead (cysts and microcysts)/number of total (cysts and microcysts)].

[14] = system: E. multilocularis metacestodes; parameters: method as in PMID 32636148; conditions: screening cascade; cited from earlier work
[15] = system: HepG2; assay: Cytotoxicity in HepG2; conditions: read-out: Cytotoxicity in HepG2, CC50; HepG2
[16] = system: PTEN; parameters: method as in SelleckChem library description; conditions: ref SelleckChem library description; cited from earlier work
[17] = system: Chk1; parameters: method as in SelleckChem library description; conditions: ref SelleckChem library description, cited from earlier work
[18] = system: Plasmodium falciparum K1a; parameters: method as in SelleckChem library description; conditions: ref SelleckChem library description; cited from earlier work
[19] = system: Trypanosoma brucei brucei GUTat 3.1; parameters: method as in SelleckChem library description; conditions: ref SelleckChem library description; cited from earlier work
[20] = system: E. multilocularis metacestodes; parameters: method as in PMID 30396011; conditions: cited from earlier work
[21] = system: EGFR; parameters: method as in SelleckChem library description; conditions: ref SelleckChem library description; cited from earlier work
[22] = system: echinococcal cysts; parameters: method as in PMID 32279056; conditions: three-dose intraperitoneal regimen, 57 mg/kg once a day for 3 days; cited from earlier work
[23] = system: p97; parameters: method as in SelleckChem library description; conditions: ref SelleckChem library description; cited from earlier work
[24] = system: 20S proteasome; parameters: method as in SelleckChem library description; conditions: ref SelleckChem library description; read-out: IC50, chymotrypsin-like activity of purified 20S proteasome; cited from earlier work
[25] = system: E. multilocularis metacestode burden; parameters: method as in PMID 32636148; conditions: oral treatment, mice infected intraperitoneally with metacestodes or orally with eggs, compared with albendazole; cited from earlier work
[26] = system: E. multilocularis and E. granulosus s.s. PSCs, metacestode vesicles, and germinal layer cells; parameters: method as in PMID 37540716; conditions: cited from earlier work
[27] = system: MALT1; parameters: method as in SelleckChem library description; conditions: ref SelleckChem library description; cited from earlier work
[28] = system: HepG2

Compound: COC(=O)[C@]12CCC(C)(C)C[C@H]1[C@H]1C(=O)C=C3[C@@]4(C)C=C(C#N)C(=O)C(C)(C)[C@@H]4CC[C@@]3(C)[C@]1(C)CC2 [Bardoxolone methyl]
- inhibition at 10 µM ([1]; 10 μM, day 3 post-treatment): 100%
- inhibition of N. fowleri growth ([2]; 24 h): approximately 85%
- inhibition of N. fowleri growth ([2]; 48 h): 97%
- coronavirus inhibition [3]: inhibitors of both alpha- and beta-coronaviruses
- CC50 [4]: 8.13 µM

Compound: CCc1ccc(OCc2ccccc2C(=O)Nc2ccc3nc(C)cc(N)c3c2)cc1 [JTC-801]
- inhibition at 10 µM ([1]; 10 μM, day 3 post-treatment): 100%
- effect on microcyst viability [5]: did not exert a significant inhibitory effect
- IC50 [6]: 0.094 µM
- CC50 ([7]; HepG2 cells): 7.43 µM

Compound: COc1ccc(-c2ccc3ncc4c(c3c2)n(-c2ccc(N3CCNCC3)c(C(F)(F)F)c2)c(=O)n4C)cn1 [BGT226 (NVP-BGT226), BGT226]
- IC50 [8]: 0.004 µM
- IC50 [9]: 0.063 µM
- IC50 [10]: 0.038 µM

Compound: COc1ccc2c(c[n+](C)c3c4cc5c(cc4ccc23)OCO5)c1OC [Chelerythrine]
- inhibition at 10 µM ([1]; 10 μM, day 3 post-treatment): 100%
- effect on microcyst viability [5]: did not exert a significant inhibitory effect
- CC50 [7]: 32.7 µM

Compound: CCCSc1ccc2nc(NC(=O)OC)[nH]c2c1 [albendazole]
- patients who did not respond favorably to the medication [12]: about 40%

Compound: OC1(c2ccc(Cl)c(C(F)(F)F)c2)CCN(CCCC(c2ccc(F)cc2)c2ccc(F)cc2)CC1 [Penfluridol]
- CC50 ([7]; HepG2 cells): 8.63 µM

Compound: CC1(C)CC[C@]2(NC(=O)C(C)(F)F)CC[C@]3(C)[C@H](C(=O)C=C4[C@@]5(C)C=C(C#N)C(=O)C(C)(C)[C@@H]5CC[C@]43C)[C@@H]2C1 [Omaveloxolone]
- inhibition at 10 µM [1]: 100%
- effect on microcyst viability [5]: complete lethality
- day on which all cysts were killed (complete lethality) [13]: ≤ 5 days
- reduction in cyst viability ([13]; 5 μM, by day 2, ex vivo): 50%
- metacestodicidal effect on cysts ex vivo [13]: obvious metacestodicidal effect
- coronavirus inhibition [3]: inhibitors of both alpha- and beta-coronaviruses
- CC50 ([7]; HepG2 cells): 9.33 µM

Compound: OC(c1cc(C(F)(F)F)nc2c(C(F)(F)F)cccc12)C1CCCCN1 (centres unmarked) [mefloquine]
- activity against E. multilocularis metacestodes in vitro [14]: active

Compound: CC(=O)OC[C@H]1O[C@@H]([S-])[C@H](OC(C)=O)[C@@H](OC(C)=O)[C@@H]1OC(C)=O.CCP(CC)CC.[Au+] [Auranofin]
- inhibitory rate against the cysts ([1]; 10 μM, day 3 post-treatment): 100%
- effect on microcyst viability [5]: did not exert a significant inhibitory effect
- CC50 [15]: 13.4 µM

Compound: CC(C)(C)C(=O)Nc1ccc2c(c1)C(=O)C(=O)c1ccccc1-2 [SF1670]
- IC50 [16]: 2 µM

Compound: Elaiophylin
- IC50 [18]: 0.36 µM
- IC50 [19]: 0.45 µM

Compound: CC(C)(C)[C@H]1CC[C@H](CC2=C(O)C(=O)c3ccccc3C2=O)CC1 [MMV689480, buparvaquone]
- MIC50 against E. multilocularis metacestodes cultured in vitro [20]: 2.87 µM (≈ 0.937 µg/mL)

Compound: CC#CC(=O)Nc1ccc2ncnc(Nc3cccc(Br)c3)c2c1 [CL-387785 (EKI-785), CL-387785]
- IC50 [21]: 0.00037 µM

Compound: COc1ccc2nc3cc(Cl)ccc3c(Nc3cc(CN4CCCC4)c(O)c(CN4CCCC4)c3)c2n1 [pyronaridine]
- cyst mortality [22]: 100%

Compound: c1ccc(CNc2nc(NCc3ccccc3)c3ccccc3n2)cc1 [DBeQ]
- IC50 [23]: 1.5 µM

Compound: CC1=C(O)C(=O)C=C2C1=CC=C1[C@@]2(C)CC[C@@]2(C)[C@@H]3C[C@](C)(C(=O)O)CC[C@]3(C)CC[C@]12C [Celastrol]
- IC50 [24]: 2.5 µM

Compound: O=C(Nc1ccc([N+](=O)[O-])cc1Cl)c1cc(Cl)ccc1O [Niclosamide]
- inhibition at 10 µM ([1]; 10 μM, day 3 post-treatment): 100%
- effect on microcyst viability [5]: complete lethality
- day on which all cysts were killed (complete lethality) [13]: 7 days
- metacestodicidal effect on cysts ex vivo [13]: obvious metacestodicidal effect
- parasiticidal efficiency ([13]; low incubation concentration, from day 5, ex vivo): approximately 80%
- activity against E. multilocularis metacestodes in vitro [14]: active
- effect on metacestode burden [25]: did not lead to a reduction of the metacestode burden
- activity against the parasites of both species in all four assays [26]: active
- CC50 [4]: 6.14 µM

Compound: CC(C)(C)c1ccc(C(O)CCCN2CCC(C(O)(c3ccccc3)c3ccccc3)CC2)cc1 (centres unmarked) [Terfenadine]
- CC50 [4]: 7.31 µM

Compound: MI-2 [MI-2 (MALT1 inhibitor)]
- IC50 [27]: 5.84 µM

Compound: CC(=O)Oc1cc(C)c(OC(C)=O)c2ccccc12 [Vitamin K4]
- CC50 ([7]; HepG2 cells): > 100 µM

Compound: Cc1[nH]c2cc(F)cc(F)c2c(=O)c1-c1ccc(Oc2ccc(OC(F)(F)F)cc2)cc1 [MMV671636, ELQ-400]
- MIC50 against E. multilocularis metacestodes cultured in vitro [20]: 0.02 µM (≈ 0.00895 µg/mL)

Compound: CC(C)(Cc1ccc2ccccc2c1)NC[C@@H](O)COc1cccc(Cl)c1C#N [NPS-2143]
- CC50 [28]: 15.3 µM

Compound: CCC[C@H](NC(=O)/C(C#N)=C/c1cccc(Br)n1)c1ccccc1 [Degrasyn (WP1130), Degrasyn]
- cyst morphology after treatment ([1]; day 3 post-drug treatment, positive control): structural damage of the cyst

Compound: CCCCc1oc2ccc(NS(C)(=O)=O)cc2c1C(=O)c1ccc(OCCCN(CCCC)CCCC)cc1 [Dronedarone HCl]
- inhibition at 10 µM ([1]; 10 μM, day 3 post-treatment): 100%
- effect on microcyst viability [5]: did not exert a significant inhibitory effect
- CC50 ([7]; HepG2 cells): 15.5 µM

Compound: O=C(Nc1cccc(C(F)(F)F)c1)c1cc(Cl)ccc1O [MMV665807]
- activity against E. multilocularis metacestodes in vitro [14]: active
- effect on metacestode burden [25]: did not lead to a reduction of the metacestode burden
- activity against the parasites of both species in all four assays [26]: active
